The results in this text go back to USRE38102E1, “Use of a pyridazinone derivative” (Orion Corporation, priority 1998, dated 2003).

In assay [1] the test system is guinea-pig papillary muscle. As to the kind of experiment: Positive inotropic effect in paced cardiac muscle. The format is cell-based. The following applies: Cavia porcellus; right ventricular papillary muscle paced at 1 Hz, 37° C. The protocol:
Positive Inotropic Effect in Paced Cardiac Muscle
Four weeks old guinea-pigs weighing about 350 g were used. In the experiments the right ventricular papillary muscle of the heart was mounted for measurement of isometric tension in organ bath containing modified Tyrode solution (37° C.) bubbled with 95% O2, 5% CO2. The composition of the modified Tyrode solution was (mM): NaCl 135; MgCl2.6H2O 1; KCl 5; CaCl2.2H2O 2; NaHCO3 15; Na2HPO4.2H2O 1; glucose 10; pH 7.3-7.4. The volume of the open horizontal chamber was 1 ml and flow rate of the superfusion solution running through the chamber was 5 ml/min. Papillary muscle (<1 mm in diameter) was stretched horizontally between force-displacement transducer (FT 0.3 and a needle fixed to the bottom of the chamber. An initial stretching tension of 300 mg was applied to the muscle which was electrically stimulated (Stimulator model SEC 48 F, Grass Instruments) via platinum field electrodes at 1 Hz with rectangular pulses (duration 4 ms). The stimulation occurred at twice threshold voltage in order to achieve simultaneous activation of all myocytes in the […]. A force-displacement transducer was connected to a polygraph D.C. driver amplifier (model 7 DA, Grass Instruments) and a programmable scanner (model SI 5010, Tetronix). […]

Assay [2] relates to skinned cardiac fiber (left ventricular papillary muscle). As to the kind of experiment: Calcium sensitizing effect in skinned cardiac fiber. The format is cell-based, guinea-pig. To be noted: pCa 5.6; concentration not given. The text has this:
Calcium Sensitizing Effect in Skinned Cardiac Fiber
Left ventricular papillary muscle of the guinea-pig was dissected and rinsed in ice-cold Tyrode solution. Thereafter the papillary muscle was immersed into a solution containing (mM): Potassium acetate 74.7, EGTA 10, MgSO4 5.4, ATP-Na2 4, DTE 1, MOPS 20, pH 7.0 (by 1 M KOH). Subsequently, the papillary muscle was sonicated at 10 Watt for 60 sec in this ice-cold solution. The distance between ultrasound probe and the papillary muscle was 10 mm. The fibers (<200 μm in diameter) were dissected from surface of sonicated papillary muscles. Moreover, the sonicated and dissected fibers were kept for 30 min in a “skinning” solution (ice-cold) containing saponin (250 μg/ml) in addition to the other constituents. Continuous magnetic stirring was used during this treatment.
The fibers which were further dissected (<100 μm in diameter) were then mounted horizontally with a glue (cellulose acetate in acetone) between a steel-rod extension of isometric force transducer (AME-801 strain gauge, Horten Electronics, Norway) and a glass rod attached to a micro-manipulator. The force transducer was connected to an amplifier. The fibers were kept in the “relaxing” solution containing (mM): imidazole 30, ATP-Na2 10, NaN3 5, EGTA 5, MgCl2 12.5, and 350 U creatinkinase. The temperature of the solution was 22° C. and the pH was set to 6.7 by 1 M KOH. […]

A word on the EC50: it is the concentration giving half of the maximal effect. Lower therefore signals a more potent agent. In turn, `CC(=O)Nc1ccc(C2=NNC(=O)C[C@H]2C)cc1` [Compound A, (R)-N-[4-(1,4,5,6-tetrahydro-4-methyl-6-oxo-3-pyridazinyl)phenyl]acetamide] displayed an EC50 in assay [1] of 100 nM.
Turning to `Cc1[nH]c(=O)c(C#N)cc1-c1ccncc1` [Milrinone, milrinone], the EC50 in assay [1] came to 2000 nM. In addition, the “Calcium sensitizing effect in skinned fiber: Change in force % of control” value in assay [2] is on record as “ineffective”.
